Assay results published in PubChem BioAssay AID977606 (Broad Institute, 2014).
Activity calls are given as the source filed them. How the calls were made is not given here.

system: INS-1E Gaussia luciferase insulin secretion, no glucose, luminescence; experiment: insulin secretion activators without glucose, dose response, counter-screen for glucose-dependent insulin secretion activators, cell-based, INS-1E, Gaussia luciferase, luminescence, cherry-pick (AID 977606)

| SMILES | AC40 |
| --- | --- |
| C[C@H]1CN([C@@H](C)CO)S(=O)(=O)c2ccc(C#Cc3ccccc3)cc2O[C@@H]1CN(C)C(=O)CN(C)C | 11.1 µM |
| CC(NCC(O)COCCC12CC3CC(CC(C3)C1)C2)c1ccccc1 (centres undefined) | 8.21 µM |
| Cc1cc(C)n(-c2nc(NCCN(C)C)c3c4c(sc3n2)CCCC4)n1 | 10.7 µM |
| Cc1ccc(S(=O)(=O)N2C[C@@H]3N[C@H](C2)C3c2ccc(/C=C/c3ccccc3)cc2)cc1 (some centres undefined) | 4.56 µM |
| CC(C)(C)c1ccc(OCC(=O)Nc2ccc(-c3nc4cccnc4o3)cc2)cc1 | 7.74 µM |
| Fc1ccc(/C=N/c2c(-c3ccc(F)cc3)nc3n2CCS3)cc1 | 6.12 µM |
| COc1cc(CNCCc2ccccc2)cc(Cl)c1OCc1ccccc1 | 7.96 µM |
| COc1ccc(CC2c3cc(OC)c(OC)cc3CCN2C)cc1O (centres undefined) | 14.7 µM |
| CCCCc1c(-c2ccccc2OC)ncn1CCc1ccccc1 | 9.48 µM |
| CCCCc1c(Cc2cccc(F)c2)ncn1CCc1ccccc1OC | 4.98 µM |
| COc1ccc(-c2ccc(C3[C@@H]4CN(Cc5cccc(OC)c5)C[C@H]3N4)cc2)cc1 (some centres undefined) | 6.42 µM |
| C/C(=N\NC(=O)c1cccc(Br)c1)c1ccc(Br)cc1 | 13 µM |
| CN(C)Cc1ccccc1Sc1ccc2c(c1)CCCC2 | 13 µM |
| O=C(CC1c2ccccc2Oc2ccccc21)Nc1ccccc1C(F)(F)F | 5.33 µM |
| Cc1ccccc1-c1ccc(C2[C@@H]3CN(C(=O)Nc4cccc(F)c4)C[C@H]2N3)cc1 (some centres undefined) | 7.52 µM |
| CCC(=O)Nc1ccc(Cl)c(NC(=S)NC(=O)COc2ccc(Cl)cc2)c1 | 5.38 µM |
| CC(C)C[C@H](NC(=O)c1[nH]cnc1C(=O)N[C@@H](C)c1ccccc1)C(=O)OC(C)(C)C | 20 µM |
| NC[C@H](Cc1ccccc1)NCCc1cc(C(F)(F)F)cc(C(F)(F)F)c1 | 9.24 µM |
| CCOC(=O)[C@]12Cc3cc(OC)ccc3[C@H]1N(C1CCCCC1)C(=O)c1cc(OC)ccc12 | 11.7 µM |
| Cc1nc2c(=O)n(C)c(=O)n(C)c2nc1Cl | 23.6 µM |
| CCN(CC)c1ccc(N=Cc2c(O)n(Cc3ccccc3)c(=O)[nH]c2=O)cc1 | 7.08 µM |
| Fc1ccc(-c2ccc(C3[C@@H]4CN(Cc5ccccc5)C[C@H]3N4)cc2)cc1 (some centres undefined) | 8.97 µM |
| Cc1ccc(NC(=O)c2oc3ccc(S(=O)(=O)N4CCOCC4)cc3c2C)cc1C | 7.57 µM |
| COc1cc(CN2C[C@@H]3N[C@H](C2)C3c2ccc(/C=C/c3ccccc3)cc2)cc(OC)c1 (some centres undefined) | 1.76 µM |
| C[C@@H]1CN([C@H](C)CO)S(=O)(=O)c2ccc(-c3ccc(F)cc3)cc2O[C@H]1CN(C)Cc1cccc(F)c1 | 17.7 µM |
| Fc1ccccc1/C=N/n1c(C2CCCCC2)n[nH]c1=S | 11.8 µM |

| SMILES | AC40 |
| --- | --- |
| CCOC(=O)c1c(-c2ccc(-c3ccccc3)cc2)csc1NC(=O)CNCCN(C)C | 5.75 µM |
| O=C(Nc1nc2ccccc2n1Cc1ccc(Cl)cc1)c1ccco1 | 6.72 µM |
| NS(=O)(=O)c1ccc(CCNc2nc3c(-c4cccc(F)c4)nnn3c3ccccc23)cc1 | 2.03 µM |
| O=C(Nc1ccccc1N1CCOCC1)C1=NN(c2ccccc2)C(=O)CC1 | 24.3 µM |
| CC(C)C(Cl)=NOC(=O)Nc1ccc(S(N)(=O)=O)cc1 | 4.58 µM |
| Cc1ccc(NC(=O)CNC(=O)c2sc3ccccc3c2Cl)nc1 | 10.3 µM |
| Cc1cc(OCC(O)CNC(C)c2ccccc2)ccc1C(C)C (centres undefined) | 9.73 µM |
| CC1(Cc2ccc(C(F)(F)F)o2)C(=O)Nc2ccc(-c3cccc(C(F)(F)F)c3)cc21 (centres undefined) | 5.92 µM |
| CC1CCC(C(C)C)C(OCC(O)CNC(C)c2ccccc2)C1 (centres undefined) | 11.8 µM |
| CCOc1cc(/C=N/NC(=O)CCn2nc(C)cc2C)ccc1O | 21.9 µM |
| COCc1[nH]nc2c1C(c1ccc(C)cc1)NC2=O (centres undefined) | 28.5 µM |
| CS(=O)(=O)c1cnc(-c2ccccc2)nc1Oc1ccc(F)cc1 | 10.9 µM |
| CC(C)CSc1nc2c(c(=O)[nH]c(=O)n2C)n1CCc1ccccc1 | 9.29 µM |
| C(=C\c1ccc(C2[C@@H]3CN(Cc4nccs4)C[C@H]2N3)cc1)/c1ccccc1 (some centres undefined) | 9.48 µM |
| Cc1cc(C)nc(Nc2n[nH]c(COc3ccc4ccccc4c3)n2)n1 | 6.18 µM |
| CC1(Cc2cc(Cl)ccc2C(F)(F)F)C(=O)Nc2cc(C(F)(F)F)ccc21 (centres undefined) | 12.4 µM |
| O=c1[nH]c(/C=C/c2ccc(OC(F)F)cc2)nc2c1cnn2-c1ccccc1 | 25.6 µM |
| O[C@H]1C[C@H](c2ccccc2)N(CC2CCCCC2)C[C@@H]1n1cc(C2CC2)nn1 | 8.64 µM |
| CCOc1ccc2ccc(OCC)c(/C=N/n3cnnc3)c2c1 | 34.8 µM |
| COc1ccc(/C=N/Nc2nc(-c3ccc(Cl)cc3)cc(C(F)(F)F)n2)c(OC)c1 | 12.2 µM |
| COc1ccccc1C(=O)NC(=S)Nc1ccc2[nH]c(=O)[nH]c2c1 | 8.24 µM |
| Cc1nc(NC(=O)c2cccc(-c3cc4ccccc4oc3=O)c2)ccc1Br | 7.19 µM |
| CN(C)CCNc1ncnc2oc(-c3ccccc3)c(-c3ccccc3)c12 | 26.4 µM |
| CN(C)C=NC(=O)c1ccc(N2CCN(c3ncc(C(F)(F)F)cc3Cl)CC2)cc1 | 5.6 µM |
| Cc1ccc(F)cc1-c1nc(NC(C)C)nc2cc(-c3ccccc3)sc12 | 13.6 µM |
| NC(c1csc(NC(=O)Nc2cccc(C(F)(F)F)c2)n1)C1CCCCC1 (centres undefined) | 6.68 µM |

| SMILES | AC40 |
| --- | --- |
| O=C(Cn1c(COc2ccccc2)nc2ccccc21)Nc1cc(Cl)cc(Cl)c1 | 5.2 µM |
| CC(C)C[C@H](NC(=O)c1nc[nH]c1C(=O)NC1CCN(C(=O)OC(C)(C)C)CC1)C(=O)OC(C)(C)C | 26.4 µM |
| COc1ccccc1C(=O)NC(=S)NC12CC3CC(CC(C3)C1)C2 | 7.67 µM |
| COCCn1c(=NC(=O)c2cc(Cl)sc2Cl)sc2cc(S(N)(=O)=O)ccc21 | 6.07 µM |
| CC(C)(C)S(=O)N1Cc2cc(C(=O)Nc3ccc(-c4ccccc4)cc3)nc(-c3cccc(-c4cccc(F)c4)c3)c2[C@@H]1CCO (some centres undefined) | 13.4 µM |
| Cc1ccc(-n2cc(CNCCCn3ccnc3C)c(-c3ccc(F)cc3)n2)cc1 | 30.7 µM |
| CCc1c(C)sc(NC(=O)c2cc(-c3ccc(OC)c(OC)c3)on2)c1C#N | 6.43 µM |
| Clc1ccc(/C=N/NC2=Nc3cccc4cccc2c34)cc1 | 2.88 µM |
| Cc1ccc(C)c(C(=O)Nc2nc3ccccc3[nH]2)c1 | 4.67 µM |
| CCCCCCN1C[C@H](n2cc(C3CC3)nn2)[C@@H](O)C[C@@H]1c1ccc(C)cc1 | 5.22 µM |
| COc1ccc(OC)c(NC(=O)c2cc3c(Cl)nc4ccccc4c3s2)c1 | 6.97 µM |
| NC(CCc1ccccc1)c1csc(Nc2ccc(C(F)(F)F)cn2)n1 (centres undefined) | 6.01 µM |
| O=C(Nc1ccc(Cl)c(Cl)c1)Nc1nc(-c2ccccc2)cs1 | 4.07 µM |
| CC(C)(C(=O)N1CCC1(C)C(=O)NS(=O)(=O)c1cccc(Cl)c1)c1ccccc1 (centres undefined) | 3.65 µM |
| CC(C)CC(NC(=O)c1ccc(Cl)cc1)C(=O)OCC(=O)c1ccc2c(c1)NC(=O)CO2 (centres undefined) | 2.04 µM |
| Fc1cccc(CN2C[C@@H]3N[C@H](C2)[C@@H]3c2ccc(-c3cccc(F)c3)cc2)c1 | 4.89 µM |
| Cc1ccccc1-c1ccc(C2[C@@H]3CN(S(=O)(=O)c4ccccc4C)C[C@H]2N3)cc1 (some centres undefined) | 5.8 µM |
| COc1ccc(C#Cc2ccc([C@@H]3[C@@H](CO)N4CCCCN(Cc5ccccc5F)C[C@@H]34)cc2)cc1 | 11.1 µM |
| COc1ccccc1C(=O)Nc1c2c(nn1-c1cccc(C)c1C)CS(=O)(=O)C2 | 13 µM |
| COc1ccc(NC(=O)Cc2c(SC)c3ccccc3n2Cc2ccccc2)cc1 | 12.5 µM |
| COc1cc2sc3ccc(C#Cc4ccc(N)cc4)cc3c(=O)c2cc1OC | 19 µM |
| O=C(CCN1CCOCC1)c1ccc2c(c1)OCCO2 | 33.2 µM |
| O=C(NC(=S)Nc1ccc(NC(=O)c2cccs2)cc1)c1cc2ccccc2o1 | 10.9 µM |
| COc1ccccc1NC(=O)N1CCCCN2[C@@H](CO)[C@@H](c3ccc(C#CC4CCCC4)cc3)[C@@H]2C1 | 9.17 µM |
| OC[C@@H]1[C@@H](c2ccc(C#CC3CCCC3)cc2)[C@H]2CN(CCC(F)(F)F)CCCCN12 | 6.32 µM |
| NCCCNC(=S)NCCCN(Cc1ccc(Cl)cc1)c1ccc(Br)cn1 | 23.4 µM |

| SMILES | AC40 |
| --- | --- |
| CC(C)(C(=O)N1CCC1(C)C(=O)NS(=O)(=O)c1ccc(Br)cc1)c1ccccc1 (centres undefined) | 10.3 µM |
| Cc1cc(C)nc(NS(=O)(=O)c2ccc(N/C=C/C(=O)c3ccc(Cl)c(Cl)c3)cc2)n1 | 4.44 µM |
| Cc1ccc(NC(=O)c2ccc(COc3ccc4c(c3)CCC4)cc2)c(C)c1 | 0.841 µM |
| O=C(Nc1ccc(C(F)(F)F)cc1)N1[C@@H]2CNC[C@H]1C2c1ccc(/C=C/c2ccccc2)cc1 (some centres undefined) | 7.54 µM |
| CN(C)CCNC(=O)c1cccc(-c2cc(NC=O)c3ncc(-c4cccc(C(F)(F)F)c4)n3c2)c1 | 13.7 µM |
| O=C(Nc1cccc(Cl)c1)Nc1nc(-c2ccc(Cl)cc2)cs1 | > 35 µM (inactive) |
| COC(=O)C1=C(C)N(Cc2cccc(C(F)(F)F)c2)C(=NCc2ccc(OC)cc2)NC1c1cccc(F)c1 (centres undefined) | 3.75 µM |
| C=CCNc1nc(Cl)nc(Nc2ccc(OC)cc2)n1 | 11.3 µM |
| OC(c1ccccc1)(c1ccccc1)C1CCN(CCCOc2ccc(-c3ccsc3)cc2)CC1 | 9.65 µM |
| Cc1cccc(-c2ccc(C3[C@@H]4CN(C(=O)C5CCCCC5)C[C@H]3N4)cc2)c1 (some centres undefined) | 11.3 µM |
| Fc1ccccc1-c1ccc(C2[C@@H]3CN(Cc4ccccc4)C[C@H]2N3)cc1 (some centres undefined) | 7.19 µM |
| Cn1c(=O)c(C(=O)NNC(=O)c2cccc(Cl)c2)c(O)c2ccccc21 | 9.13 µM |
| Oc1ccccc1-c1cc(C(F)(F)C(F)F)nc(-c2ccccc2)n1 | 3.86 µM |
| Cc1ccccc1CSCc1ccc(C(=O)NCCCN2CCOCC2)o1 | 26.4 µM |
| COc1ccc(C(C)NCCC(c2ccc(OC(C)C)cc2)c2ccccc2OC)cc1 (centres undefined) | 4.99 µM |
| CCOc1ccc(Nc2oc(-c3ccc(Cl)cc3)nc2C#N)cc1 | 5.43 µM |
| N#Cc1cccc(-c2ccc([C@@H]3[C@@H]4CN(S(=O)(=O)c5ccc(-c6ccccc6)cc5)C[C@H]3N4)cc2)c1 | 1.89 µM |
| COc1cccc(-c2ccc(C3[C@@H]4CN(Cc5cccc(F)c5)C[C@H]3N4)cc2)c1 (some centres undefined) | 7.22 µM |
| Cc1cc(C)cc(NC(=O)Cc2ccc(-n3cccc3)cc2)c1 | 6.9 µM |
| O=C(N/N=C/c1ccc(O)cc1O)NC12CC3CC(CC(C3)C1)C2 | 13.3 µM |
| COC(=O)c1ccc(C(=O)Nc2cc(Cl)ccc2Cl)cc1NC(=O)c1ccccc1C | 1.39 µM |
| CCc1ccc(OCC(=O)NC(=S)Nc2ccc(F)cc2)c(Br)c1 | 6.76 µM |
| N#Cc1c(-c2cccc(Br)c2)cc(-c2cccnc2)nc1N | 8.34 µM |
| N#Cc1ccc(-c2ccc([C@@H]3[C@H]4CNC[C@@H]3N4Cc3cc(F)ccc3F)cc2)cc1 | 12.8 µM |
| CCCOc1ccc(/C=N/NC(=O)C(=O)Nc2ccccn2)cc1 | 18.5 µM |
| O=C1CC(Sc2nnc(-c3ccccc3)o2)C(=O)N1c1ccccc1 (centres undefined) | 9.58 µM |
